Experimental data as given in ChEMBL document CHEMBL1208764, “Morroniside cinnamic acid conjugate as an anti-inflammatory agent” (Bioorg Med Chem Lett, 2010).
Calls of active or inactive are those of the source. The calls are words filed in the database; no cut-off is given here.

Tests used:
HUVEC [1] = assay: Antiinflammatory activity in HUVEC assessed as inhibition of TNF-alpha-induced E-selection expression at 10-1000 ug/ml after 2 hrs by ELISA; type: functional, cell-based; conditions: Homo sapiens
HUVEC [2] = assay: Cytotoxicity against HUVEC assessed as LDH release at 10-1000 ug/ml after 2 hrs; type: cell-based; conditions: human
HUVEC [3] = assay: Antiinflammatory activity in HUVEC assessed as inhibition of TNF-alpha-induced E-selection expression after 2 hrs by ELISA; type: functional, cell-based; conditions: Homo sapiens

COC(=O)C1=CO[C@@H](O[C@@H]2O[C@H](CO)[C@@H](O)[C@H](O)[C@H]2O)[C@@H]2[C@H](C)O[C@@H](OC)C[C@H]12
inhibition (HUVEC [1]): inactive
Activity (HUVEC [2]): Non-toxic

C[C@]1(OC(=O)/C=C/c2ccccc2)C[C@@H](O)[C@]2(O)C=CO[C@@H](O[C@@H]3O[C@H](CO)[C@@H](O)[C@H](O)[C@H]3O)[C@@H]21 [HARPAGOSIDE]
IC50 (HUVEC [3]): 88.2 µM

COC(=O)C1=CO[C@@H](O[C@@H]2O[C@H](CO)[C@@H](O)[C@H](O)[C@H]2O)[C@@H]2[C@H](C)O[C@@H](O)C[C@H]12 [MORRONISIDE]
inhibition (HUVEC [1]): inactive
Activity (HUVEC [2]): Non-toxic
